According to patent publication US20220273793A1, “HORSE IL-31 INDUCED PRURITUS MODEL” (priority 2021, published 2022):
Values joined by “and” are separate entries in the source; they are usually repeats but may differ in a detail not shown here. Identical values can stand only once.

Columns and labels:
[1] = system: IL-31 induced pruritus; assay: Oclacitinib maleate in equine model of IL-31 induced pruritus; type: in vivo, Horse; parameters: key to Post Treatment Score (pruritus): cumulative count of yes responses (1 per behavior per 1-min interval); details: for Post Treatment Score (pruritus) / % Change vs Historical Score: individual horses
Experimental: Horses were administered either carrier only or oclacitinib maleate tablets at a determined number of hours prior to IL-31 challenge administration. […] Blood samples for pharmacokinetic analysis were collected at the time of IL-31 administration and immediately following the post-challenge observation period. Due to limited number of observation stalls, horses were challenged in batches. Batch 1 will include T01 (n=2)+T02 (n=5). Batch 2 will include T01 (n=2)+T03 (n=5). Batch 3 will include T01 (n=2)+T04 (n=5) (Table 9)
Signs of pruritus in horses include: • Biting or scratching at self • Rubbing against objects • Feet stomping • Tail flicking • Head or body shaking • Rolling • Twitching of skin
A “yes” response was indicated by marking a “1” in the space provided for the specific behavior during the one minute interval. The cumulative number of yes responses per behavior were added to determine a cumulative pruritus score for each horse.

[2] = system: beagle dogs; details: 1.5 μg/kg intravenous challenge dose; cited from earlier work
[3] = target: T1, IL-31 (Canis lupus familiaris, UniProt A0A8I3S3D1); details: dogs with atopic dermatitis; cited from earlier work
T1 construct: host or cells: endogenous IL-31 of client dogs with atopic dermatitis
T1 sequence (A0A8I3S3D1 24-159): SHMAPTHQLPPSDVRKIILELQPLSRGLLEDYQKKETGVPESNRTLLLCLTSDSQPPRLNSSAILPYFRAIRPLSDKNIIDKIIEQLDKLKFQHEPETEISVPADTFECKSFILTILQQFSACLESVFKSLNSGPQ

Molecule: Oclacitinib maleate
- Post Treatment Score (pruritus) ([1]; T02: 0.25 mg/kg oral, IL-31 0.25 mcg/kg challenge 1.5 hr after dosing): 21 and 94 and 91 and 86 and 46
- % Change vs Historical Score ([1]; T02: 0.25 mg/kg oral, challenge 1.5 hr after dosing): −68.89% and 6.21% and −5.70% and −9.47% and −31.85%
- reduction in average pruritic score compared to the placebo group (T01) ([1]; T02: 0.25 mg/kg, challenged 1.5 hours after treatment): 30%
- Post Treatment Score (pruritus) ([1]; T03: 0.25 mg/kg oral, IL-31 0.25 mcg/kg challenge 21.5 hr after dosing): 49 and 90 and 86 and 50 and 72
- % Change vs Historical Score ([1]; T03: 0.25 mg/kg oral, challenge 21.5 hr after dosing): −3.92% and 65.14% and 17.81% and −29.08% and −5.88%
- reduction in average pruritic score compared to the placebo group (T01) ([1]; T03: 0.25 mg/kg, challenged 21.5 hours after treatment): 29%
- Post Treatment Score (pruritus) ([1]; T04: 0.25 mg/kg oral, IL-31 0.25 mcg/kg challenge 4.5 hr after dosing): 49 and 87 and 46 and 53 and 99
- % Change vs Historical Score ([1]; T04: 0.25 mg/kg oral, challenge 4.5 hr after dosing): −55.05% and −22.32% and −54.23% and −45.92% and −6.16%
- reduction in average pruritic score compared to the placebo group (T01) ([1]; T04: 0.25 mg/kg, challenged 4.5 hours after treatment): 31%

B1: recombinant canine IL-31: recombinant canine IL-31 used as intravenous challenge in beagle dogs (protein)
chain: SHMAPTHQLPPSDVRKIILELQPLSRGLLEDYQKKETGVPESNRTLLLCLTSDSQPPRLNSSAILPYFRAIRPLSDKNIIDKIIEQLDKLKFQHEPETEISVPADTFECKSFILTILQQFSACLESVFKSLNSGPQ
- pruritus duration [2]: < 24 h

B2: Cytopoint: canine anti-IL-31 monoclonal antibody (mAb) produced by Zoetis Inc. (antibody, chains of the INN, looked up, V domains shown)
VH: EVQLVESGGDLVKPGGSLRLSCVASGFTFSNYGMSWVRQAPGKGLQWVATISYGGSYTYYPDNIKGRFTISRDNAKNTLYLQMNSLRAEDTAMYYCVRGYGYDTMDYWGQGTLVTVSS
VL: EIVMTQSPASLSLSQEEKVTITCKASQSVSFAGTGLMHWYQQKPGQAPKLLIYRASNLEAGVPSRFSGSGSGTDFSFTISSLEPEDVAVYYCQQSREYPWTFGQGTKLEIK
- effect on pruritus and skin lesions [3]: reduce pruritus and skin lesions
